Patent publication US8846747B2, “Compounds and methods for altering lifespan of eukaryotic organisms” (University of Rochester, priority 2009, dated 2014)

Key:
DeaD strain BB579 = test: yeast Death of Daughters (DeaD) lifespan assay, reversal of nicotinamide (NAM) lifespan shortening; format: cell-based, S. cerevisiae (yeast); details: Saccharomyces cerevisiae, BB579, read-out: C50 (concentration that yields half the maximal activity) by DeaD assay
Experimental: The C50 (50% maximal activity) is a measure of the efficacy of a compound as a LAC and is determined by quantifying the dose-response curve for each LAC by DeaD assay in the presence and absence of nicotinamide. The C50 is the concentration of LAC that yields half the maximal activity. Dose response curves will generally peak and then decline. The decline is most likely due to toxicity at higher LAC concentrations. The C50 is determined relative to the maximal lifespan extension (the peak value). C50 values are provided for C1-5.
The compounds listed in Table 1 of Example 3 were assessed for their anti-aging activities using the yeast Death of Daughters (DeaD) explicative lifespan assay. Specifically, the compounds were assessed for their capacity to reverse the lifespan shortening effect of exogenous nicotinamide (NAM), which is a known inhibitor of the anti-aging protein Sir2p (Anderson et al., 2003; Bitterman et al., 2002). These compounds were compared to the activities of known cluster 1 compounds, S3-5, and #3-11.
“Activity” here is defined herein as the fold improvement in DeaD lifespan in the presence of 0.75 mM NAM relative to lifespan in the absence of cluster 1 compounds, over a range of compound concentrations between 0.5 nm-1 μm. This “activity” value is a means of assessing the usefulness of a compound as a LAC. The assays were performed as follows. DeaD strain BB579 was grown overnight in a permissive (galactose-containing) medium to mid-log phase, and then diluted to an OD600 of 0.0001 in restrictive (glucose-containing) medium with 0.75 mM NAM and the compound to be tested. Cells were then incubated at 30° C. for 3 days, with shaking and OD600 measurement every 20 minutes. The OD600 reading after 60 hours in restrictive medium, normalized to the same measurement for the “no drug” control, was used as the number for comparison.
Five of the compounds with higher activity than S3-5 were selected for further study and were designated C1-1, C1-2, C1-3, C1-4, and C1-5 (see Table 2, Example 4). All data in FIGS. 1A(1)-(6) are from media containing 0.75 mM NAM. Note the different ranges of the X axes in FIGS. 1A(1)-(6)—very different C50 values for the compounds of the present invention compared the known C1 cluster compounds. […] All five had C50 values below 50 nM, while the C50 value for S3-5 was about 650 nM, and the C50 for S1-9 was about 350 nM.

[1] = tested on: strain FY839 (healthy wild-type); test: Toxicity of compounds by yeast growth assay; format: cell-based; details: FY839, inset in FIG. 2
Experimental: The toxicity of compounds C1-1, C1-2, C1-3, C1-4, and C1-5 in yeast was assessed by determining their effects on growth of a wild-type yeast strain. FIG. 2 is a graphical representation of the toxicity data. The yeast used was strain FY839 (healthy wild-type) growing in SCD. At 12 hours all were in log phase. […] This concentration is many-fold higher than the effective concentrations of these compounds as assessed by DeaD lifespan assays.

RAW 264.7 cells = test: LPS-induced TNF-α secretion from RAW 264.7 cells (ELISA); format: cell-based, murine; details: compound 1 micromolar, LPS 10 ng/ml for 6 hrs; FIG. 3
Experimental: FIG. 3. […] To obtain the data summarized in FIG. 3, RAW […] cells were incubated with Scrims (compounds of present invention) (1 uM), PI3K inhibitor positive control (LY-294002; 25 uM) or vehicle (DMSO) for 1 hr. LPS (10 ng/ml) was added to the medium. 6 hrs post LPS administration medium was collected and analyzed for TNFa levels using ELISA.
In vitro anti-inflammatory activity in RAW 264.7 cells (murine leukaemic monocyte macrophage cell line): Lipopolysaccharide (LPS)-induced secretion of cytokines from RAW cells is a recognized in vitro assay for anti-inflammatory drugs. The anti-inflammatory activities of C1-1, C1-2, C1-3, C1-4, and C1-5 in the RAW cell model. RAW cells exposed to LPS were incubated with each of the five molecules at 1 micromolar concentration. The PIK3 inhibitor LY-294002 was used at 25 micromolar as a positive control. […] LPS was administered at 10 ng/ml for 6-hrs. TNF-α levels were quantified by ELISA assay. Results are presented as % of control with standard deviations of three replicates.

[2] = tested on: mice exposed to cigarette smoke; test: cigarette smoke-induced inflammation of mouse lungs; format: in vivo; details: ip 5 mg/kg
Experimental: FIG. 4. […] To obtain the data summarized in FIG. 4, Mice were exposed to cigarette smoke or filtered air for 3 consecutive days. They were treated ip with vehicle or Cob 1-2 (5 mg/kg) in DMSO: 1 group was treated daily during smoke exposure period and 1 group was pre-treated with 2 doses per week during the week prior to the smoke exposure and daily during the smoke exposure. On day 4, mice were sacrificed. Their lungs were washed and BAL fluid was stained for Europhiles count. The lungs were homogenized for ELISA quantifying MCP-1 levels.
In vivo prevention of cigarette smoke-induced inflammation of mouse lungs: Exposing mice to cigarette smoke induces an acute inflammatory response in the lungs. Cigarette smoke-induced inflammation in the lungs was assessed by quantifying the ratio of macrophages to Europhiles in bronchoalveolar lavage fluid (BALF), and levels of pro-inflammatory markers such as MCP-1 in lung tissue (Yao H, Edirisinghe I, Rajendrasozhan S, Yang S R, Caito S, Adenuga D, Rahman I. Cigarette smoke-mediated inflammatory and oxidative responses are strain-dependent in mice. Am. J. Physiol Lung Cell Mol Physiol 2008; 294: L1174-L1186.).

TNF-α-treated mice = test: TNF-α-induced vascular inflammation in mice (leukocyte rolling in mesenteric vessels); format: in vivo, mouse; details: ip 6 mg/kg once (1 hour) or twice (24 hours and 1 hour) prior to TNF-α; compared to TNF-α-treated control mice; FIG. 5
Experimental: FIG. 5. Graphical results showing in vivo reduction of TNF-α-induced vascular inflammation in mice. To obtain the data summarized in FIG. 5, mice (3 each group) were injected with vehicle or Cob 1-2 (ip, 6 mg/kg in DMSO). Two treatments were used: i) 1 dose an hour before TNFa and, ii) 2 doses (24 hrs and 1 hr before TNFa ). TNFa was administered ip (20 ug/kg). 3 hours post TNFa administration, mice were anesthetized, their mesentery was exposed and placed on an inverted fluorescent microscope stage. Lymphocyte velocities within veins was determined by analyzing video recordings
In vivo reduction of TNF-α-induced vascular inflammation in mice: The affects of drugs on vascular inflammation can be assessed by quantifying the rates of leukocytes rolling in mouse mesenteric vessels following intraperitoneal administration of TNF-α (Craig N. Morrell, Kenji Matsushita, and Charles J. Lowenstein. A Novel Inhibitor of N-Ethylmaleimide-Sensitive Factor Decreases Leukocyte Trafficking and Peritonitis. JPET 2005; 314:155-161). Vascular inflammation was induced in two groups of mice that were treated with C1-2 either once (1 hour) or twice (24 hours and 1 hour) prior to TNF-α administration.

## CCC(=O)C1C(=O)CC(c2ccc(F)cc2)CC1=O (stereo not drawn) [SRI# 22790, 1,3-cyclohexanedione, 2-propanoyl-5-[4-fluorophenyl]-]
DeaD strain BB579
  EC50: < 50 nM
[1]
  toxic effects on growth at concentrations below 1 μM: little or no toxic effects on growth
RAW 264.7 cells
  reduction of secreted TNF-α relative to vehicle treated cells: exhibited anti-inflammatory activity
[2]; 3 days smoke exposure, FIG. 4A
  total Europhiles count in BAL fluid: lowered total Europhiles count to near background levels
[2]; lung homogenate ELISA, FIG. 4B
  MCP-1 levels in lungs: decreased in a statistically significant fashion
TNF-α-treated mice
  leukocytes velocity in mesenteric vessels: significantly increased leukocytes velocity
